Measurements published in patent US20240381872A1, “SUBSTITUTED 2,3-DIHYDRO[1,3]THIAZOLO[4,5-B]PYRIDINES, SALTS THEREOF AND THEIR USE AS HERBICIDALLY ACTIVE SUBSTANCES” (BAYER AKTIENGESELLSCHAFT, priority 2021, published 2024).

How the values were obtained:
Assay type in all cases: in vivo
Zea mays (ZEAMX) [1] = test: Pre-emergence effects on crop plants, section D (Table D1); settings: visual grading after ca. 3 weeks
Text: (§1) Seeds of mono- and dicotyledonous weed plants and crop plants were sown, in plastic or organic planting pots, in sandy loam and covered with soil. The compounds according to the invention, formulated in the form of wettable powders (WP) or as emulsifiable concentrates (EC), were applied to the surface of the covering soil as aqueous suspension or emulsion, with the addition of 0.5% of an additive, at an application rate of 600 l of water/ha (converted).
(§2) Following treatment, the pots were placed in a greenhouse and kept under optimum growth conditions for the test plants. The visual grading of the damage to the test plants was carried out after ca. 3 weeks in comparison to untreated controls (herbicidal effect in percent (%): 100% effect=plants have died off, 0% effect=as control plants).
(§3) Tables D1 to D5 below show the effects of various compounds of the general formula (I) according to Table 1 on various crop plants and an application rate corresponding to 320 g/ha or below obtained by the experimental procedure mentioned above in Biological Examples, Section C.

Brassica napus (BRSNW) [2] = test: Pre-emergence effects on crop plants, section D (Table D5); settings: visual grading after ca. 3 weeks
Text: as §1, §2, §3

Brassica napus (BRSNW) [3] = test: Post-emergence effects on crop plants, section F (Table F5)
Text: (§4) Seeds of mono- and dicotyledonous weed plants and crop plants were sown, in plastic or organic planting pots, in sandy loam, covered with soil and grown in a greenhouse under controlled growth conditions. 2 to 3 weeks after sowing, the test plants were sprayed in the single-leaf stage. The compounds according to the invention, formulated in form of wettable powders (WP) or as emulsifiable concentrates (EC), were sprayed onto the green plant parts as aqueous suspension or emulsion, with the addition of 0.5% of an additive, at an application rate of 600 l of water/ha (converted). The test plants were placed in the greenhouse for ca. 3 weeks under optimum growth conditions, and then the effect of the preparations was assessed visually in comparison with untreated controls (herbicidal effect in percent (%): 100% effect=plants have died off, 0% effect=as control plants). Tables F1 to F4 below show the effects of selected compounds of the general formula (I) according to Table 1 on various crop plants and an application rate corresponding to 320 g/ha or below obtained by the experimental procedure mentioned above.

Zea mays (ZEAMX) [4] = test: Post-emergence effects on crop plants, section F (Table F1)
Text: as §4

Glycine max (GLXMA) [5] = test: Pre-emergence effects on crop plants, section D (Table D4); settings: visual grading after ca. 3 weeks
Text: as §1, §2, §3

[6] = tested on: Triticum aestivum (TRZAS); test: Pre-emergence effects on crop plants, section D (Table D2); settings: visual grading after ca. 3 weeks
Text: as §1, §2, §3

Glycine max (GLXMA) [7] = test: Post-emergence effects on crop plants, section F (Table F4)
Text: as §4

[8] = tested on: Triticum aestivum (TRZAS); test: Post-emergence effects on crop plants, section F (Table F2)
Text: as §4

Oryza sativa (ORYZA) [9] = test: Pre-emergence effects on crop plants, section D (Table D3); settings: visual grading after ca. 3 weeks
Text: as §1, §2, §3

Oryza sativa (ORYZA) [10] = test: Post-emergence effects on crop plants, section F (Table F3); settings: Oryza sativa, 504 h, read-out: post-emergence activity against ORYZA in %
Text: as §4

Veronica persica (VERPE) [11] = test: Herbicidal pre-emergence action, section C (Table C10); settings: application rate 320 g/ha, visual grading after ca. 3 weeks
Text: (§5) Seeds of mono- and dicotyledonous weed plants and crop plants were sown, in plastic or organic planting pots, in sandy loam and covered with soil. The compounds according to the invention, formulated in the form of wettable powders (WP) or as emulsifiable concentrates (EC), were applied to the surface of the covering soil as aqueous suspension or emulsion, with the addition of 0.5% of an additive, at an application rate of 600 l of water/ha (converted). Following treatment, the pots were placed in a greenhouse and kept under optimum growth conditions for the test plants. The visual grading of the damage to the test plants was carried out after ca. 3 weeks in comparison to untreated controls (herbicidal effect in percent (%): 100% effect=plants have died off, 0% effect=as control plants).

[12] = tested on: Polygonum convolvulus (POLCO); test: Herbicidal pre-emergence action, section C (Table C7); settings: application rate 320 g/ha; visual grading after ca. 3 weeks
Text: as §5

Kochia scoparia (KCHSC) [13] = test: Herbicidal pre-emergence action, section C (Table C13); settings: application rate 320 g/ha, visual grading after ca. 3 weeks
Text: as §5

Kochia scoparia (KCHSC) [14] = test: Herbicidal post-emergence action, section E (Table E11); settings: visual assessment ca. 3 weeks after spraying
Text: as §4, with “plants).” for “plants). Tables F1 to F4 below show the effects of selected compounds of the general formula (I) according to Table 1 on various crop plants and an application rate corresponding to 320 g/ha or below obtained by the experimental procedure mentioned above.”

[15] = tested on: Amaranthus retroflexus (AMARE); test: Herbicidal pre-emergence action, section C (Table C11); settings: visual grading after ca. 3 weeks
Text: as §5

[16] = tested on: Echinochloa crus-galli (ECHCG); test: Herbicidal pre-emergence action, section C (Table C3); settings: Echinochloa crus-galli, pre-emergence, 504 h; application rate 320 g/ha; visual grading after ca. 3 weeks vs untreated controls; read-out: pre-emergence activity against ECHCG in %
Text: as §5

[17] = tested on: Digitaria sanguinalis (DIGSA); test: Herbicidal pre-emergence action, section C (Table C12); settings: Digitaria sanguinalis, pre-emergence, 504 h; application rate 320 g/ha; visual grading after ca. 3 weeks; read-out: pre-emergence activity against DIGSA in %
Text: as §5

Setaria viridis (SETVI) = test: Herbicidal pre-emergence action, section C (Table C8); settings: Setaria viridis, pre-emergence, 504 h; application rate 320 g/ha; visual grading after ca. 3 weeks; read-out: pre-emergence activity against SETVI in %
Text: as §5

[18] = tested on: Polygonum convolvulus (POLCO); test: Herbicidal post-emergence action, section E (Table E7); settings: Fallopia convolvulus, 504 h, application rate 320 g/ha, visual assessment ca. 3 weeks after spraying, read-out: post-emergence activity against POLCO in %
Text: as §4, with “plants).” for “plants). Tables F1 to F4 below show the effects of selected compounds of the general formula (I) according to Table 1 on various crop plants and an application rate corresponding to 320 g/ha or below obtained by the experimental procedure mentioned above.”

Veronica persica (VERPE) [19] = test: Herbicidal post-emergence action, section E (Table E9); settings: Veronica persica, 504 h, application rate 320 g/ha, visual assessment ca. 3 weeks after spraying, read-out: post-emergence activity against VERPE in %
Text: as §4, with “plants).” for “plants). Tables F1 to F4 below show the effects of selected compounds of the general formula (I) according to Table 1 on various crop plants and an application rate corresponding to 320 g/ha or below obtained by the experimental procedure mentioned above.”

[20] = tested on: Alopecurus myosuroides (ALOMY); test: Herbicidal pre-emergence action, section C (Table C2); settings: Alopecurus myosuroides, pre-emergence, 504 h; application rate 320 g/ha; visual grading after ca. 3 weeks vs untreated controls; read-out: pre-emergence activity against ALOMY in %
Text: as §5

[21] = Zea mays, 504 h, application rate 320 g/ha, read-out: post-emergence activity against ZEAMX in %
[22] = Glycine max, 504 h, application rate 320 g/ha, read-out: post-emergence activity against GLXMA in %
[23] = Triticum aestivum, 504 h, application rate 320 g/ha, read-out: post-emergence activity against TRZAS in %
[24] = Brassica napus, 504 h, application rate 80 g/ha, read-out: post-emergence activity against BRSNW in %
[25] = crop plant damage, application rate 320 g/ha

Row | Structure (SMILES) | pre-emergence activity against ZEAMX in % (crop plant damage) (Zea mays (ZEAMX) [1]; application rate 320 g/ha) [%] | pre-emergence activity against BRSNW in % (crop plant damage) (Brassica napus (BRSNW) [2]; application rate 80 g/ha) [%] | percent crop plant damage (phytotoxicity) on Zea mays, post-emergence at 320 g/ha (Zea mays (ZEAMX) [4]; [21]) [%] | pre-emergence activity against GLXMA in % (crop plant damage) (Glycine max (GLXMA) [5]; application rate 80 g/ha) [%] | pre-emergence activity against TRZAS in % (crop plant damage) ([6]; application rate 320 g/ha) [%] | percent crop plant damage at 320 g/ha (Glycine max (GLXMA) [7]; [22]) [%] | percent crop plant damage (wheat, post-emergence) at 320 g/ha [8, 23] [%] | pre-emergence activity against BRSNW in % (crop plant damage) (Brassica napus (BRSNW) [2]; application rate 320 g/ha) [%] | crop plant damage (phytotoxicity) in % at 80 g/ha (Brassica napus (BRSNW) [3]; [24]) [%] | pre-emergence activity against ZEAMX in % (crop plant damage) (Zea mays (ZEAMX) [1]; application rate 80 g/ha) [%] | pest or weed control at 320 g/ha [16] [%] | pest or weed control at 320 g/ha (Setaria viridis (SETVI)) [%] | pest or weed control at 320 g/ha (Veronica persica (VERPE) [19]) [%] | further results
1 | CCS(=O)(=O)N1CS(=O)(=O)c2cc(C)c(-c3ccccc3F)nc21 [Example I-146, 3-(ethylsulfonyl)-5-(2-fluorophenyl)-6-methyl-2,3-dihydro[1,3]thiazolo[4,5-b]pyridine 1,1-dioxide] | 0 | 0 | 0 | 0 | 0 | 0 | 0 |  |  |  |  |  |  | crop plant damage (phytotoxicity) in % at 320 g/ha (Brassica napus (BRSNW) [3]; Brassica napus, 504 h, application rate 320 g/ha, read-out: post-emergence activity against BRSNW in %): 0%
2 | O=C(c1ccccc1C(F)(F)F)N1CSc2cc(Br)c(-c3ccccc3Cl)nc21 [Example I-061, [6-bromo-5-(2-chlorophenyl)[1,3]thiazolo[4,5-b]pyridin-3(2H)-yl][2-(trifluoromethyl)-phenyl]methanone] | 0 |  | 20 |  | 0 | 0 | 0 | 20 | 0 |  |  |  |  | pre-emergence activity against ORYZA in % (crop plant damage) (Oryza sativa (ORYZA) [9]; application rate 320 g/ha): 20%; pre-emergence activity against GLXMA in % (crop plant damage) (Glycine max (GLXMA) [5]; application rate 320 g/ha): 0%; percent crop plant damage at 320 g/ha (Oryza sativa (ORYZA) [10]; application rate 320 g/ha): 0%
3 | COCCOCCOCC(=O)N1CSc2cc(Br)c(-c3cccc(F)c3F)nc21 [Example I-148] |  | 0 |  | 0 | 0 |  |  |  |  | 0 |  |  |  | pre-emergence activity against VERPE in % (Veronica persica (VERPE) [11]): 80%; pre-emergence activity against POLCO in % [12]: 80%; pre-emergence activity against KCHSC in % (Kochia scoparia (KCHSC) [13]): 90%; post-emergence activity against BRSNW in % (Brassica napus (BRSNW) [3]; crop plant damage, application rate 80 g/ha): 20%; post-emergence activity against ZEAMX in % (Zea mays (ZEAMX) [4]; [25]): 0%; post-emergence activity against KCHSC in % (Kochia scoparia (KCHSC) [14]; application rate 320 g/ha): 80%; pre-emergence activity against AMARE in % ([15]; application rate 320 g/ha): 90%; post-emergence activity against GLXMA in % (Glycine max (GLXMA) [7]; [25]): 0%; post-emergence activity against TRZAS in % [8, 25]: 0%
4 | CS(=O)(=O)N1C[S+]([O-])c2cc(Br)c(-c3ccccc3Cl)nc21 (stereo not drawn) [Example I-133] | 20 |  | 0 | 20 |  |  | 0 |  | 0 |  | 100 | 100 | 80 | pest or weed control at 320 g/ha (Veronica persica (VERPE) [11]; Veronica persica, pre-emergence, 504 h, read-out: pre-emergence activity against VERPE in %): 80%; pest or weed control at 320 g/ha (Kochia scoparia (KCHSC) [13]; Bassia scoparia, pre-emergence, 504 h, read-out: pre-emergence activity against KCHSC in %): 90%; pre-emergence activity against TRZAS in % (crop plant damage) ([6]; application rate 80 g/ha): 0%; pest or weed control at 80 g/ha (Kochia scoparia (KCHSC) [14]; Bassia scoparia, 504 h, application rate 80 g/ha, read-out: post-emergence activity against KCHSC in %): 90%; pest or weed control at 320 g/ha [17]: 100%; percent crop plant damage at 80 g/ha (Glycine max (GLXMA) [7]; Glycine max, 504 h, application rate 80 g/ha, read-out: post-emergence activity against GLXMA in %): 0%; pest or weed control at 320 g/ha [18]: 80%
5 | O=C(C1CCCC1)N1CSc2cc(Br)c(-c3ccccc3F)nc21 [Example I-021, [6-bromo-5-(2-fluorophenyl)[1,3]thiazolo[4,5-b]pyridin-3(2H)-yl](cyclopentyl)methanone] |  |  |  |  | 0 | 20 |  | 0 | 10 | 0 | 90 | 80 | 80 | pest or weed control at 320 g/ha [20]: 80%; pre-emergence activity against ORYZA in % (crop plant damage) (Oryza sativa (ORYZA) [9]; application rate 80 g/ha): 10%; percent crop plant damage (phytotoxicity) on Zea mays, post-emergence at 80 g/ha (Zea mays (ZEAMX) [4]; Zea mays, 504 h, application rate 80 g/ha, read-out: post-emergence activity against ZEAMX in %): 10%; pest or weed control at 80 g/ha ([15]; Amaranthus retroflexus, pre-emergence, 504 h, application rate 80 g/ha, read-out: pre-emergence activity against AMARE in %): 100%; percent crop plant damage at 80 g/ha (Oryza sativa (ORYZA) [10]; application rate 80 g/ha): 10%; percent crop plant damage (wheat, post-emergence) at 80 g/ha ([8]; Triticum aestivum, 504 h, application rate 80 g/ha, read-out: post-emergence activity against TRZAS in %): 0%
